Where two headings read alike, the source gives them in different places.
Legend:
[1] = system: peripheral blood mononuclear cells (PBMC) stimulated with allogeneic PBMC or EBV-transformed human B cells (RPMI1788); experiment: Mixed lymphocyte reaction (MLR) assay; format: cell-based; details: 50% suppression of the MLR, [3H]-thymidine incorporation, read-out: MLR
How it was run: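 Compounds, held as 10 mM DMSO stocks and diluted in culture medium, were added to PBMC stimulated by 30 Gy-irradiated allogeneic PBMC or RPMI1788 cells. Proliferation was read as [3H]-thymidine uptake (1 μCi, final 16 h) after 5 days at 37° C. Inhibition was derived from cpm.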

[2] = system: production of human TNF-α by PBMC in response to LPS; experiment: TNF-α assay (LPS-stimulated PBMC, sandwich ELISA); format: cell-based; details: LPS 1 μg/ml, 72 hours, read-out: TNF α
Procedure: Peripheral blood mononuclear cells (herein referred as PBMC), in response to stimulation by lipopolysaccharide (hereinafter LPS), a gram-negative bacterial endotoxin, produce various […], in particular human TNF-α. Inhibition of the activation of PBMC can therefore be measured by the level of suppression of the production of TNF-α by PBMC in response to stimulation by LPS. Inhibition measurement was performed as follows: PBMC were isolated from heparinized peripheral blood by density gradient centrifugation over Lymphoprep (commercially available from Nycomed, Norway). LPS was then added to the PMBC suspension in complete medium (10^6 cells/ml) at a final concentration of 1 μg/ml. The pteridine derivative to be tested was added at different concentrations (0.1 μM, 1 μM and 10 μM) and the cells were incubated at 37° C. for 72 hours in 5% CO2. The supernatants were collected, then TNF-α concentrations were measured with respectively an anti-TNF-α antibody in a sandwich ELISA (Duo Set ELISA human TNFα, commercially available from R&D Systems, United Kingdom). The colorimetric reading of the ELISA was measured by a Multiskan RC plate reader (commercially available from ThermoLabsystems, Finland) at 450 nm (reference wavelength: 690 nm). Data analysis was performed with Ascent software 2.6. (also from ThermoLabsystems, Finland): a standard curve (recombinant human TNFα) was drawn and the amount (pg/ml) of each sample on the standard curve was determined. The % suppression of human TNFα production by the pyrido[3,2-d]pyrimidine derivatives of the invention was calculated using the formula: [formula]

Compound | IC50 ([1]; Homo sapiens, RPMI-1788) [nM] | IC50 ([2]; Homo sapiens, PBMC) [nM] | IC50 [1] [nM] | IC50 [2] [nM]
Cc1csc(-c2ccc3nc(N)nc(N4CCOCC4)c3n2)c1 [Example 239, 2-amino-4-morpholino-6-(4-methyl-2-thienyl)-pyrido[3,2-d]pyrimidine] | 4600 | 4900 |  | 
COc1ccc(-c2ccc3nc(N)nc(SC)c3n2)cc1OC [Example 223, 2-amino-4-thiomethyl-6-(3,4-dimethoxyphenyl)-pyrido[3,2-d]pyrimidine] |  |  | 900 | 800
Nc1nc(N2CCOCC2)c2nc(-c3ccc4[nH]ccc4c3)ccc2n1 [Example 237, 2-amino-4-morpholino-6-(5-indolyl)-pyrido[3,2-d]pyrimidine] | 800 | 2600 |  | 
COc1ccc(-c2ccc3nc(N)nc(N4CC[C@H](NC(=O)COc5ccc(Cl)cc5)C4)c3n2)cc1OC [Example 220] | 4300 | 1800 |  | 
Nc1nc(N2CCOCC2)c2nc(-c3cccs3)ccc2n1 [Example 238, 2-amino-4-morpholino-6-(2-thienyl)-pyrido[3,2-d]pyrimidine] | 800 | 2800 |  | 
COc1cc(-c2ccc3nc(N)nc(N4CCN(C(=O)Nc5cccc(C)c5)CC4)c3n2)ccc1O [Example 104, 2-amino-4-[(N-3-methyl-phenyl-carbamoyl)-piperazin-1-yl]-6-(4-hydroxy-3-methoxyphenyl)-pyrido[3,2-d]pyrimidine] |  |  | 400 | 300
COc1ccc(-c2ccc3nc(N)nc(N4CCN(Cc5ccccc5)CC4)c3n2)cc1OC [Example 52, 2-amino-4-(1-benzylpiperazin-1-yl)-6-(3,4-dimethoxyphenyl)-pyrido[3,2-d]pyrimidine] |  |  | 800 | 460
Nc1nc(N2CCOCC2)c2nc(-c3cccnc3)ccc2n1 [Example 240, 2-amino-4-morpholino-6-(3-pyridinyl)-pyrido[3,2-d]pyrimidine] | 1300 | 700 |  | 
COc1ccc(-c2ccc3nc(N)nc(NC4CCCN(C(=O)OCc5ccccc5)C4)c3n2)cc1OC (centres unmarked) [Example 258, 2-amino-4-[(1-Cbz-piperidin-3-yl)amino]-6-(3,4-dimethoxyphenyl)-pyrido[3,2-d]pyrimidine] | 900 | 300 |  | 
Cc1cc(-c2ccc3nc(N)nc(N4CCOCC4)c3n2)ccc1F [Example 244, 2-amino-4-morpholino-6-(4-fluoro-3-methylphenyl)-pyrido[3,2-d]pyrimidine] | 3800 | 7200 |  | 
COc1ccc(-c2ccc3nc(N)nc(NC4CCCN(C(=O)Nc5cccc(C)c5)C4)c3n2)cc1OC (centres unmarked) [Example 264, 2-amino-4-[(3-methylphenylcarbamoylpiperidin-3-yl)amino)-6-(3,4-dimethoxyphenyl]-pyrido[3,2-d]pyrimidine] | 500 | 1800 |  | 
Nc1nc(N2CCOCC2)c2nc(-c3ccco3)ccc2n1 [Example 232, 2-amino-4-morpholino-6-(2-furan)-pyrido[3,2-d]pyrimidine] |  |  | 5300 | 5300
Nc1nc(N2CCOCC2)c2nc(-c3ccc(Cl)s3)ccc2n1 [Example 241, 2-amino-4-morpholino-6-(5-chloro-2-thienyl)-pyrido[3,2-d]pyrimidine] | 2200 | 5400 |  | 
COc1ccc(-c2ccc3nc(N)nc(NCCNC(=O)COc4ccc(Cl)cc4)c3n2)cc1OC [Example 265] | 300 | 3900 |  | 
CC(=O)N1CCN(c2nc(N)nc3ccc(-c4ccc5c(c4)OCCO5)nc23)CC1 [Example 199, 2-amino-4-[N-acetyl-piperazin-1-yl]-6-(1,4-benzodioxane)-pyrido[3,2-d]pyrimidine] | 4800 | 2900 |  | 
COc1ccc(-c2ccc3nc(N)nc(N4CC[C@H](N)C4)c3n2)cc1OC [Example 219, 2-amino-4-[(S)-3-(amino)pyrrolidine]-6-(3,4-dimethoxyphenyl)-pyrido[3,2-d]pyrimidine] | 5500 | 1900 |  | 
COc1cc(-c2ccc3nc(N)nc(N4CCOCC4)c3n2)ccc1O [Example 96, 2-amino-4-(N-morpholino)-6-(4-hydroxy-3-methoxy)-pyrido[3,2-d]pyrimidine] |  |  | 800 | 600
COc1nc(N2CCN(C(=O)Nc3cccc(C)c3)CC2)c2nc(-c3ccc(OC)c(OC)c3)ccc2n1 [Example 90, 2-methoxy-4-[(N-3-methyl-phenylcarbamoyl)-piperazin-1-yl]-6-(3,4-dimethoxy-phenyl)-pyrido[3,2-d]pyrimidine] |  |  | 140 | 500
COc1ccc(-c2ccc3nc(N)nc(N4CC[C@@H](NC(=O)COc5ccc(Cl)cc5)C4)c3n2)cc1OC [Example 267] | 700 | 2500 |  | 
Nc1nc(N2CCOCC2)c2nc(-c3ccc(F)c(F)c3)ccc2n1 [Example 243, 2-amino-4-morpholino-6-(3,4-difluorophenyl)-pyrido[3,2-d]pyrimidine] | 2300 | 6000 |  | 
CCOc1ccc(-c2ccc3nc(N)nc(N4CCOCC4)c3n2)cc1F [Example 166, 2-amino-4-morpholino-6-(3-fluoro-4-ethoxy-phenyl)-pyrido[3,2-d]pyrimidine] | 700 | 800 |  | 
COc1ccc(-c2ccc3nc(OC(C)CN4CCCC4)nc(N4CCN(C(=O)Nc5cccc(C)c5)CC4)c3n2)cc1OC (centres unmarked) [Example 17] |  |  | 2700 | 5200
COc1ccc(-c2ccc3nc(N)nc(OCCOc4ccccc4)c3n2)cc1OC [Example 25, 2-amino-4-(2-phenoxyethoxy)-6-(3,4-dimethoxyphenyl)-pyrido[3,2-d]pyrimidine] | 300 | 700 |  | 
Nc1nc(N2CCOCC2)c2nc(-c3ccsc3)ccc2n1 [Example 233, 2-amino-4-morpholino-6-(3-thiophene)-pyrido[3,2-d]pyrimidine] |  |  | 4400 | 3700
COc1ccc(-c2ccc3nc(N)nc(NCC(=O)N4CCN(C)CC4)c3n2)cc1OC [Example 276, 2-amino-4-[2-amino-1-(4-methyl-piperazin-1-yl)-ethanone]-6-(3,4-dimethoxyphenyl)-pyrido[3,2-d]pyrimidine] |  | 600 |  | 
COc1ccc(-c2ccc3nc(N)nc(NCCC(=O)N4CCN(C(C)=O)CC4)c3n2)cc1OC [Example 272, 2-amino-4-[3-(4-acetylpiperazin-1-yl)-propan-3-one-1-yl-amino]-6-(3,4-dimethoxyphenyl)-pyrido[3,2-d]pyrimidine] |  | 700 |  | 
COc1ccc(-c2ccc3nc(N)nc(N4CCN(CC(=O)N5CCCC5)CC4)c3n2)cc1OC [Example 273, 2-amino-4-(N-pyrrolidinyl-acetamid-2-yl-piperazin-1-yl)-6-(3,4-dimethoxyphenyl)pyrido[3,2-d]pyrimidine] |  | 80 |  | 
COc1ccc(-c2ccc3nc(N)nc(N4CCN(CC(=O)NCCc5ccccc5)CC4)c3n2)cc1OC [Example 270, 2-amino-4-[4-(N-2-phenylethylacetamid-2-yl)piperazin-1-yl]-6-(3,4-dimethoxyphenyl)-pyrido[3,2-d]pyrimidine] |  | 300 |  | 
COc1ccc(-c2ccc3nc(N)nc(N4CCN(CC(=O)Nc5ccccn5)CC4)c3n2)cc1OC [Example 274, 2-amino-4-(N-pyridinylacetamid-2-yl-piperazin-1-yl)-6-(3,4-dimethoxyphenyl)-pyrido[3,2-d]pyrimidine] |  | 80 |  | 
